Data from PMC6379152 (Cellular microbiology, 2018).

Test system: rHSGGT1 (HSGGT1)
Assay: pNA release at […] nm, Michaelis-Menten fit
Format: biochemical, Helicobacter saguini
Settings: 20 mM glycylglycine as acceptor; Tris-HCl pH 8; 37 C; mean of three batches

Structure (SMILES): N[C@@H](CCC(=O)Nc1ccc([N+](=O)[O-])cc1)C(=O)O [GpNA, L-y-glutamyl-p nitroanilide]
- Km: 12.3 ± 2.35 µM
